From patent US20070248672A1, “Indole and Azaindole Derivatives with Antitumor Action” (priority 2004, published 2007) come the findings set out here.

Data set [1] has as its target Vacuolar ATPase in human osteoclastoma (hOc) (Homo sapiens, UniProt P27449+Q13488). The experiment in a line: Vacuolar ATPase inhibition in human osteoclastoma (hOc) microsomal fraction. Format: biochemical. To be noted: 30 min, 37° C. The protocol: 1.1 Determination of Vacuolar ATpase Inhibition in Human Osteoclastoma (hOc)
Osteoclast-like giant cells isolated from human osteoclastoma are homogenized using a glass-teflon homogeniser (1000 rpm) and the material is centrifuged for 20 minutes at 6000 g. The resultant pellet is resuspended and centrifuged at 100000 g for 60 minutes to sediment the microsomal fraction. The resultant pellet is resuspended in medium at pH 7.4 and stored under liquid nitrogen.
Inhibition of bafilomycin sensitive ATPase activity is assayed by measuring the release of inorganic phosphate during 30 minutes of incubation, at 37° C., of the human osteoclastoma microsomal fraction in 96-well plates. The reaction medium contains 1 mM ATP, 10 mM Hepes-Tris buffer pH 8, 50 mM KCl, 5 μM valinomycin, 5 μM nigericin, 1 mM CDTA-Tris, 100 μM ammonium molybdate, 0.2 M sucrose and the microsomal fraction (20 μg protein/ml). The reaction is initiated by adding MgSO4 and terminated, after 30 minutes, by adding 4 volumes of the reagent malachite green, prepared according to Chan K., Anal. Biochem. 157, 375-380, 1986.

Data set [2] has as its system HT29/Mit cells. Put plainly: Antiproliferative activity, 72 h treatment, SRB assay, HT29/Mit resistant line. Format: cell-based, human. To be noted: Homo sapiens. The method, then:
(§1) HT29 and HT29/Mit (line obtained by prolonged exposure to mitoxantrone, and characterised by overexpression of BCRP, which confers cross resistance to topotecan, irinotecan and to its metabolite SN38): maintained in McCoy 5A medium+10% FCS.
(§2) 2.2 Scheme of the Antiproliferative Activity Experiment (Treatment Time: 72 Hours)
(§3) The cells (HT29 and HT29/Mit: 40,000 cells/ml, LoVo, LoVo/Dx and HCT116: 50,000 cells/ml) are seeded in 100 μl of the respective culture media in 96-well plates. 24 hours after seeding, an aliquot (10 μl) of drug at the various concentrations is added. In the samples in which the effect of the combination of two compounds is to be tested the inhibitor is added immediately before the cytotoxic. For each dose or combination of doses/drugs the effect of the treatment is determined in 4-8 replicates.
(§4) After 72 hours of treatment the antiproliferative effect is evaluated using the sulforhodamine B (SRB) assay: the cells are fixed by adding 25 μl of 50% TCA to each well and left for 1 hour at 4° C. After washing them with water and allowing them to dry, 100 μl of 0.4% SRB in 1% acetic acid are added and left for 30 minutes at room temperature. After 4 washes in 1% acetic acid, they are left to dry then the dye fixed by the proteins is dissolved under basic conditions with 100 μl 10 mM cold Tris and the solution is read using a spectrophotometer at 550 nm.
(§5) Percentage cell growth is calculated as the optical density of treated samples compared to the optical density of controls (untreated cells).
(The SRB assay estimates cell density from bound dye.)

In data set [3] the test system is HT29 cells. The experiment in a line: Co-treatment with topotecan, HT29 cells (Combination Index according to Kern). Format: cell-based, human. To be noted: HT29; compound at 4 μM (3 experiments) and 8 μM (2 experiments), subtoxic doses. The protocol:
as §3, §4, §5
(§6) The Combination Index (C.I.) was determined according to Kern's method, 1988 (who continued from Drewinko B, 1976) (Kem D. H., Cancer Res. 48, 117-121, 1988; Drewinko B., Cancer Biochem. Biophys. 1, 187-195, 1976) by means of the following formula: […], where SFa and SFb are the fractions of cells surviving to treatment with compound a and b, respectively; SFab is the fraction surviving to the combination of compounds a and b. If the result is =1, the interaction between the two compounds is additive; if it is >1, the interaction between the two compounds is synergistic; if it is <1, the interaction between the two compounds is antagonistic.

The test system of the next data set is HepG2 cells. The experiment in a line: Antiproliferative activity, 48 h treatment, ATPlite luminescence assay, HepG2. Format: cell-based, human. To be noted: Homo sapiens; HepG2, 48 h treatment; read-out: Antiproliferative activity (IC50 ± S.D.) HepG2 48 h treatment. The method, then: HepG2: maintained in EMEM medium+10% FCS.
2.3 Scheme of the Antiproliferative Activity Experiment (Treatment Time: 48 Hours)
The cells (concentration: 30,000 cells/ml) are seeded in 90 μl of the respective culture media in 96-well plates. 24 hours after seeding, an aliquot (10 μl) of the drug at the various concentrations is added (for each concentration there are 3 replicates). After 48 hours of treatment the antiproliferative effect is evaluated with a luminescence assay (Perkin Elmer Life Sciences ATPlite):
50 μl of a lysis solution are added to each well followed by an equal volume of a solution containing luciferase and D-luciferin. The ATP present in all the metabolically active cells brings about the transformation reaction of D-luciferin, catalysed by luciferase, to produce a luminescent signal as described in the following scheme: ATP+D-luciferin+O2→Oxyluciferin+AMP+PP1+CO2+Light
The luminescence produced (expressed in counts per second, CPS) is measured by means of a microplate scintillation analyzer (Perkin Elmer Life Sciences Top Count).
Percentage inhibition of luminescence in the treated cells compared to the control is calculated; concentration-response curves are then analysed using Grafit v.5.0.
(ATP-based viability assays read luminescence as a measure of living cells.)

Data set [4] has as its system HT29/Mit cells. The experiment in a line: Co-treatment with topotecan, HT29/Mit resistant cells (Combination Index according to Kern). The data set is classed as cell-based, human. To be noted: HT29/Mit; compound at non-toxic concentrations 0.01-0.1 μM. The method, then:
as §3, §4, §5, §6

Data set [5] has as its system HT29 cells. Put plainly: Antiproliferative activity, 72 h treatment, SRB assay, HT29. Format: cell-based, human. To be noted: Homo sapiens. The method, then: as §1, §2, §3, §4, §5
The next data set deals with tumour cells. Put plainly: Antiproliferative effect on tumour cells, combined treatment with known antitumour agents. Format: cell-based. The following applies: with topotecan, SN38, taxol, doxorubicin and anthracyclines. The method, then:
as §3, §6

The structures appear in SMILES notation. Entries after “also recorded” stand apart in the source; their conditions may differ. Where two headings read alike, the source gives them in different places.

Vacuolar ATPase in human osteoclastoma (hOc), sequence (P27449 whole entry, looked up): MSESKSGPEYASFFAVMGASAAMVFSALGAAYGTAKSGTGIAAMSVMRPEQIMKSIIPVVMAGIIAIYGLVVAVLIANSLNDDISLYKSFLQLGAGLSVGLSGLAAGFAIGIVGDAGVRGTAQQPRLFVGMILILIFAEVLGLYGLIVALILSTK
Vacuolar ATPase in human osteoclastoma (hOc), sequence (Q13488 whole entry, looked up): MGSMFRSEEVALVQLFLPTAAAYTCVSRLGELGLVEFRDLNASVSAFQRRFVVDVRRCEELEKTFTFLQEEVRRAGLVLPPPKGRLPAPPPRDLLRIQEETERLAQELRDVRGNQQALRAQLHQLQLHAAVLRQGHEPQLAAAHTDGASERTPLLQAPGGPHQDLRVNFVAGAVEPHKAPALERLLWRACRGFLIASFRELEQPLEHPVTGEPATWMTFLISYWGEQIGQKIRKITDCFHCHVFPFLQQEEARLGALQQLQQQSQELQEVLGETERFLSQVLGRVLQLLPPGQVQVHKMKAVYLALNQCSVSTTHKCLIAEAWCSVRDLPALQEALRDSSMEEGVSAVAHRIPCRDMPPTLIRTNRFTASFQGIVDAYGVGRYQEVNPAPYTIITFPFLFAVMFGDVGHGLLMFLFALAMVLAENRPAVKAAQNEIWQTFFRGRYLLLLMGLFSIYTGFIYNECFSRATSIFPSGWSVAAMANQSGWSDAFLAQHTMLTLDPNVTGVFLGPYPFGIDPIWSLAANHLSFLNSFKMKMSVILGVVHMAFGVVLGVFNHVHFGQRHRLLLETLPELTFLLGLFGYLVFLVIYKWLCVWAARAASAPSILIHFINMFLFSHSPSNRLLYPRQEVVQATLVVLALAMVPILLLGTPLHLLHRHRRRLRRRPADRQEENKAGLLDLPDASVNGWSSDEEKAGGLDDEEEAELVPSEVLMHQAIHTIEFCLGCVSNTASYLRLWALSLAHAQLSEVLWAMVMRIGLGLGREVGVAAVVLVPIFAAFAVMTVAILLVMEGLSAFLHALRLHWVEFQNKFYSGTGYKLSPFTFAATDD

As for `COC(=O)c1[nH]c2cc(OC)c(OC)cc2c1-c1ccc(OC)cc1` [Example 1, 5,6-Dimethoxy-3-(4-methoxy-phenyl)-1H-indole-2-carboxylic acid methyl ester], the IC50 was 0.5 µM in data set [1]; 0.1 to 3 µM with HT29/Mit cells [2] (HT-29, HT29/Mit, after 72 hours of treatment, range stated for the group, read-out: IC50 values in the resistant line); 1 ± 0.9 µM in the data set with HT29/Mit cells [2] (HT-29/Mit resistant line, 72 h treatment, read-out: Antiproliferative activity (IC50 ± S.D.) HT-29/Mit); 24.4 ± 7.9 µM in the data set on HepG2 cells; 5 to 42 µM with HT29 cells [5] (HT-29, HT29, after 72 hours of treatment, range stated for the group, read-out: IC50 values in the sensitive line); 14.4 ± 2.1 µM with HT29 cells [5] (HT-29, 72 h treatment, read-out: Antiproliferative activity (IC50 ± S.D.) HT-29 72 h treatment). Besides, the “effect of combination with topotecan (Combination Index according to Kern)” value with HT29 cells [3] is on record as “clear synergistic effect”. Also, the “effect of co-treatment with topotecan” value in the data set on HT29/Mit cells [4] is “synergism; also recorded: clear synergistic effect”. The “effect in combination with cytotoxic agents” value in the data set with tumour cells is “marked synergistic effects”.
